The text below walks through data of ChEMBL document CHEMBL1201862, “PubChem BioAssay data set” (2004).

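Results reflect a 48-hour exposure of cells in 96-well plates to compound at five concentrations. GI50: concentration for 50% inhibition of growth.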 Calls of active or inactive are those of the source. Cut-off read from the data, not from the text of the source: active = GI50 up to about 1.1 µM and inactive = higher.

Test systems include A549; CAKI-1; CCRF-CEM; HCT-15; M14; MDA-MB-231; MDA-MB-435; MOLT-4; NCI-H460; OVCAR-8; SF-295; SK-MEL-2; SN12C; SNB-75; SW-620; TK-10; U-251; UACC-257; UACC-62; UO-31.
Holding throughout (experiment): NCI anticancer screen, dose series, 48 h

Take `CC1=NN(C(=O)c2ccncc2)C(=O)C1/N=N/c1ccc2ccccc2c1` (stereo not given): the GI50 with A549 is 28.1 µM (inactive); in the test on CAKI-1, > 100 µM (inactive); in the test with CCRF-CEM it was 64.6 µM (inactive); in the test with HCT-15, 7.41 µM; in the test with M14 it was 12.2 µM (inactive); in the test on MDA-MB-231, 20.8 µM (inactive). For the same molecule, the GI50 in the test on MDA-MB-435 is 3.4 µM (inactive); with MOLT-4, 5.32 µM (inactive); in the test on NCI-H460, 21.5 µM (inactive); in the test on OVCAR-8 it was > 100 µM (inactive); with SF-295 it was 91 µM (inactive); in the test with SK-MEL-2, 14.7 µM (inactive). The GI50 is > 100 µM (inactive) in the test with SN12C; > 100 µM (inactive) in the test on SNB-75; 38.7 µM (inactive) with SW-620; 60.3 µM (inactive) in the test with TK-10; > 91 µM (inactive) in the test on U-251; > 100 µM (inactive) in the test with UACC-257. Besides, the GI50 in the test with UACC-62 is 44.2 µM (inactive); in the test with UO-31 it was > 100 µM (inactive).

As to `O=C(O)C1=C(C(=O)O)N(c2ccncc2)C(c2ccco2)=CC1c1ccccc1[N+](=O)[O-]` (stereo not given), the GI50 in the test with A549 is 16.2 µM (inactive); in the test with CAKI-1 it was 15.5 µM (inactive); with CCRF-CEM, 2.69 µM (inactive); in the test on HCT-15 it was 1.81 µM; in the test on M14, 7.01 µM (inactive); in the test on MDA-MB-231, 14.2 µM (inactive). Besides, the GI50 with MDA-MB-435 is 13.5 µM (inactive); in the test on MOLT-4, 3.44 µM (inactive); in the test on NCI-H460, 12.6 µM (inactive); with OVCAR-8, 16.7 µM (inactive); with SF-295 it was 12.2 µM (inactive); with SK-MEL-2, 17.8 µM (inactive). Further, the GI50 is 13.1 µM (inactive) in the test on SN12C; 7.4 µM (inactive) in the test on SNB-75; 8.85 µM (inactive) in the test with SW-620; 6.01 µM (inactive) in the test with TK-10; 4.92 µM (inactive) in the test with U-251; 2.22 µM (inactive) in the test on UACC-257. In addition, the GI50 in the test on UACC-62 was 15.3 µM (inactive); with UO-31 it was 8.26 µM (inactive).
